Experimental findings from ChEMBL document CHEMBL1201862, “PubChem BioAssay data set” (2004) are described below.

Some test systems named below: MDA-N; OVCAR-5; 786-0; MCF7; SF-268; NCI-H226; A498; M14; A549; SK-OV-3; SK-MEL-5; MDA-MB-435; HCC 2998; SR; T47D; CAKI-1; Malme-3M; COLO 205; SF-539; K562.
Experiment in all cases: growth of human tumour cells (NCI), 48 h

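Five compound concentrations were applied to cells in 96-well plates for 48 hours; endpoints were derived by simple linear interpolation of the resulting dose-response curve. GI50 is the concentration that inhibits growth by half.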 The source made the active and inactive calls. Cut-off read from the data, not from the text of the source: active = GI50 up to about 1.1 µM and inactive = higher.

Take `O=C1C=CC(=O)c2c(O)ccc(O)c21` [NAPHTHAZALIN]: the GI50 in the assay with MDA-N was 2.75 µM (inactive); in the assay with OVCAR-5, 6.95 µM (inactive); in the assay on 786-0 it was 1.14 µM (inactive); in the assay on MCF7, 2.32 µM (inactive); with SF-268, 2.52 µM (inactive); in the assay on NCI-H226 it was 9.25 µM (inactive). Moreover, the GI50 in the assay with A498 was 2.96 µM (inactive); with M14 it was 0.581 µM (active); in the assay with A549 it was 8.95 µM (inactive); in the assay with SK-OV-3 it was 12.7 µM (inactive); in the assay on SK-MEL-5, 2.14 µM (inactive); with MDA-MB-435, 3.68 µM (inactive). Moreover, the GI50 in the assay with HCC 2998 is 4.66 µM (inactive); in the assay with SR it was 0.222 µM (active); with T47D, 2.07 µM (inactive); with CAKI-1, 1.27 µM (inactive); with Malme-3M it was 1.18 µM (inactive); in the assay with COLO 205, 0.807 µM (active). Besides, the GI50 with SF-539 is 2.49 µM (inactive); with K562, 0.425 µM (active).
